Consider four molecules from US4381305A, “Ethylenediamine derivatives and pharmaceutical compositions containing same” (Simes S.p.A., priority 1980, dated 1983).

In this test the test system is rabbit's isolated aorta. The test is described as follows: KCl-induced contraction of the rabbit's isolated aorta (antispasmodic activity on the smooth muscles). The format is cell-based. The settings on record: Oryctolagus cuniculus, Godfraind method, read-out: ED50 (the source's name). An excerpt:
The compounds of the present invention are endowed with antispasmodic activity on the smooth muscles with has been established with the test of KCl--induced contraction of the rabbit's isolated aorta according to Godfraind and coll. (Arch. Int. Pharmacodyn., 172, 235, 1968).
Turning to `COc1cc(CN(C)CCN(C)CCC(c2ccccc2)c2ccccc2)cc(OC)c1OC` [N1,N2-dimethyl-N1-(3,4,5-trimethoxybenzyl)-N2-(3,3-diphenylpropyl)-ethylenediamine dimaleate], the IC50 turned out to be 1.3 µg/mL. To `COc1ccc(C(O)(CCN(C)CCN(C)Cc2ccccc2)c2ccc(OC)cc2)cc1` [N1,N2-dimethyl-N1-benzyl-N2-(3,3-di-p-methoxyphenyl-3-hydroxypropyl)-ethylenediamine dimaleate] belongs 5.2 µg/mL; to `CN(CC=C(c1ccccc1)c1ccccc1)CCN(C)Cc1ccccc1` [N1,N2-dimethyl-N1-benzyl-N2-(3,3-diphenylallyl)-ethylenediamine dimaleate], 2.1 µg/mL; to `CN(CCC(c1ccccc1)c1ccccc1)CCN(C)Cc1ccccc1` [N1,N2-dimethyl-N1-benzyl-N2-(3,3-diphenylpropyl)-ethylenediamine dimaleate], 4.6 µg/mL.
